Experimental data: publication PMC8955370, “Triterpenes and Phenolic Compounds from Euphorbia deightonii with Antiviral Activity against Herpes Simplex Virus Type-2” (Plants, 2022)
Where two headings read alike, the source gives them in different places.

Assays:
[1] = MTT cell viability assay for cytotoxic concentration 50% (CC50); assay type: cell-based; settings: African green monkey
Description: For the determination of cytotoxic concentration 50% (CC50), a cell viability test was performed as an MTT assay using the Vero cell line. Cells were seeded at a density of 4 × 10^4 cells/well. After an overnight period, fresh medium was complemented with serial 2-fold dilutions of all compounds 1–8. The cells were incubated at 37 °C for 24 h. Later, 20 μL of thiazolyl blue tetrazolium bromide (MTT; Sigma-Aldrich, St. Louis, MO, USA) was added to each well. After an additional incubation at 37 °C for 4 h, sodium dodecyl sulphate (Sigma-Aldrich, St. Louis, MO, USA) solution (10% in 0.01 M HCI) was added and incubated overnight. CC50 was then determined by measuring the OD at 550 nm (ref. 630 nm) with the EZ READ 400 ELISA reader (Biochrom, Cambridge, UK). The assay was replicated four times for each concentration.

[2] = tested on: human HT-1080 fibrosarcoma; design: method as in PMID 9677271; settings: cited from earlier work
[3] = tested on: murine colon 26-L5 carcinoma cells; design: method as in PMID 9677271; settings: cited from earlier work
HSV-2 [4] = assay: Anti-HSV-2 qRT-PCR assay on infected Vero cells; settings: for Anti-HSV-2 Activity IC50: Vero cells infected with 0.01 MOI HSV-2, 24 h, qRT-PCR; for IC50: Human alphaherpesvirus 2, Vero; for Selectivity Index: SI = CC50/IC50
HSV = tested on: HSV; design: method as in PMID 14998984; settings: cited from earlier work
HSV-1 = tested on: HSV-1; design: method as in PMID 14526920; settings: cited from earlier work
HSV-2 [5] = tested on: HSV-2; design: method as in PMID 14526920; settings: cited from earlier work
[6] = tested on: acyclovir (ACV)-resistant strains of HSV-1; design: method as in PMID 32545813; settings: ACV-resistant HSV-1; cited from earlier work
[7] = tested on: acyclovir (ACV)-resistant strains of HSV-2; settings: ACV-resistant HSV-2; cited from earlier work
rat epithelioid = tested on: rat epithelioid; design: method as in PMID 26274958; settings: rat epithelioid cells; cited from earlier work
[8] = tested on: human normal liver (L–O2); design: method as in PMID 23109850; settings: L–O2 cells; cited from earlier work
[9] = tested on: gastric epithelial cell lines (GES–2); design: method as in PMID 23109850; settings: GES–2 cells; cited from earlier work
[10] = tested on: six terrestrial pathogenic bacteria; design: method as in PMID 24914904; settings: cited from earlier work
HSV-2 [11] = settings: by reducing HSV-2 infectivity; cited from earlier work
Bacillus subtilis = tested on: Bacillus subtilis; design: method as in doi:10.1016/S0031-9422(00)81759-8; settings: cited from earlier work
Klebsiella pneumoniae = tested on: Klebsiella pneumoniae; design: method as in doi:10.1016/S0031-9422(00)81759-8; settings: cited from earlier work
Trychophyton rubrum = tested on: Trychophyton rubrum; design: method as in doi:10.1016/S0031-9422(00)81759-8; settings: cited from earlier work
[12] = tested on: influenza A virus (A/PR/8/34, H1N1); design: method as in PMID 28081470; settings: not effective; cited from earlier work
[13] = tested on: porcine circovirus type 2 (PCV2); design: method as in doi:10.1007/s12257-014-0520-8; settings: at the concentration of 0.01563 mg/mL; cited from earlier work
hepatitis B virus (HBV) = tested on: hepatitis B virus (HBV); design: method as in PMID 31557836; settings: HepG2.2.15 model transfected with HBV; cited from earlier work
[14] = 24 h, read-out: Anti-HSV-2 Activity IC50
[15] = Vero cells, MTT assay, 24 h, read-out: CC50

For COc1cc([C@H]2Oc3c(OC)cc(/C=C/COC(C)=O)cc3[C@@H]2COC(C)=O)ccc1O [Compound 5, dehydrodiconiferyl-diacetate], the CC50 at 24 h [1] is given as 82.5 ± 8.94 µM, the cytotoxic activity [2] is given as “moderate cytotoxic activity” and the cytotoxic activity [3] is given as “moderate cytotoxic activity”. For the same molecule, the “Anti-HSV-2 Activity IC50” value (HSV-2 [4]) was “inactive”.
For O=C(OC1OC2COC(=O)c3cc(O)c(O)c(O)c3-c3c(cc(O)c(O)c3O)C(=O)OC3C2OC(=O)C24CC5(O)OC6(OCC(O)C6O)C2OC2(O)C4c4c(cc(O)c(O)c4OC52O)C(=O)OC13)c1cc(O)c(O)c(O)c1 (centres unmarked) [putranjivain A], the “viral attachment and cell penetration” value (HSV) is listed as “inhibition of viral attachment and cell penetration” and the viral infectivity (HSV) is listed as “significantly reduce viral infectivity”.
For C=C(C)[C@@H]1CC[C@]2(C)CC[C@]3(C)[C@H](CC[C@@H]4[C@@]5(C)CCC(=O)C(C)(C)[C@@H]5CC[C@]43C)[C@@H]12 [lupenone], the “viral plaque inhibitory effect” value (HSV-1) is given as “strong viral plaque inhibitory effect” and the “viral plaque inhibitory effect” value (HSV-2 [5]) is given as “strong viral plaque inhibitory effect”.
With C=C(CC[C@@H](C)[C@H]1CC[C@@]2(C)C3=C(C(=O)C[C@]12C)[C@@]1(C)CC[C@H](O)C(C)(C)[C@@H]1C[C@@H]3O)C(C)C [Compound 1, 3β,7β-dihydroxy-24-methylenelanosta-8-ene-11-one] the CC50 at 24 h [1] was 35.5 ± 1.62 µM, the IC50 (HSV-2 [4]; [14]) was 7.05 ± 0.25 µM and the “Selectivity Index” value (HSV-2 [4]) was 5.03.
With COc1cc2c(=O)oc3c(OC)c(O)cc4c(=O)oc(c1OC)c2c34 [Compound 8, 3,4,3′-tri-O-methylellagic acid] the CC50 at 24 h [1] was 25.7 ± 1.84 µM and the “Anti-HSV-2 Activity IC50” value (HSV-2 [4]) was “inactive”.
In the case of O=C1OCC2OC(=O)c3cc(O)c(O)c(O)c3-c3c(O)c(O)c(O)c4c3C(=O)OC(C2OC(=O)c2cc(O)c(O)c(O)c2-c2c1cc(O)c(O)c2O)C1OC(=O)c2c-4c(O)c(O)c(O)c2C1O (centres unmarked) [vescalagin], the antiviral activity [6] is given as “activity against acyclovir (ACV)-resistant strains of HSV-1 and HSV-2 was proved” and the antiviral activity [7] is given as “activity against acyclovir (ACV)-resistant strains of HSV-1 and HSV-2 was proved”.
In the case of CC(C)=CCC[C@@H](C)[C@@H]1CC[C@]2(C)C3=C(CC[C@@]12C)[C@@]1(C)CC[C@H](O)C(C)(C)[C@@H]1CC3=O [Compound 2, kansenone], the CC50 at 24 h [1, 15] is listed as 52.1 ± 2.21 µM, the cytotoxicity (rat epithelioid) is listed as “strong cytotoxicity” and the cytotoxicity [8] is listed as “strong cytotoxicity”. For the same molecule, the cytotoxicity [9] was “strong cytotoxicity” and the “Anti-HSV-2 Activity IC50” value (HSV-2 [4]) was “inactive”.
In the case of grandinin, the antiviral activity [6] is given as “activity against acyclovir (ACV)-resistant strains of HSV-1 and HSV-2 was proved” and the antiviral activity [7] is given as “activity against acyclovir (ACV)-resistant strains of HSV-1 and HSV-2 was proved”.
In the case of C=CC(OC)c1cc(OC)c2c(c1)[C@@H](COC(C)=O)[C@H](c1ccc(O)c(OC)c1)O2 (relative stereo) [Compound 4, trans-(2-(4-hydroxy-3-methoxyphenyl)-7-methoxy-5-(1-methoxyallyl)-2,3-dihydrobenzofuran-3-yl)methyl acetate], the CC50 at 24 h [1] is reported as 39.8 ± 4.73 µM, the IC50 (HSV-2 [4]; [14]) is reported as 11.7 ± 0.79 µM and the “Selectivity Index” value (HSV-2 [4]) is reported as 3.389.
With Nc1nc2c(ncn2COCCO)c(=O)[nH]1 [Acyclovir, reference compound] the CC50 at 24 h [1] was 100 ± 6.15 µM, the IC50 (HSV-2 [4]; [14]) was 0.77 ± 0.032 µM and the “Selectivity Index” value (HSV-2 [4]) was 129.87.
In the case of C=C(CC[C@H](C)[C@@H]1CC[C@@]2(C)C3=C(CC[C@]12C)[C@@]1(C)CC[C@H](O)C(C)(C)[C@@H]1CC3=O)C(C)C [Compound 3, euphorbol-7-one], the CC50 at 24 h [1, 15] is listed as 7.84 ± 0.96 µM, the antibacterial activity [10] is listed as “ineffective” and the IC50 (HSV-2 [4]; [14]) is listed as 2.42 ± 0.06 µM. For the same molecule, the “Selectivity Index” value (HSV-2 [4]) was 3.23.
In the case of O=C(OC1C(O)C(O)OC2COC(=O)c3cc(O)c(O)c(O)c3-c3c(cc(O)c(O)c3O)C(=O)OC21)c1cc(O)c(O)c(O)c1 [3-O-galloyl-4,6-(S)-hexahydroxydiphenoyl-D-glucose], the HSV-2 multiplication (HSV-2 [11]) is given as “inhibit HSV-2 multiplication”.
In the case of O=C1OC[C@H]2OC(=O)c3cc(O)c(O)c(O)c3-c3c(O)c(O)c(O)c4c3C(=O)O[C@H]([C@H]3OC(=O)c5c-4c(O)c(O)c(O)c5[C@H]3O)[C@@H]2OC(=O)c2cc(O)c(O)c(O)c2-c2c1cc(O)c(O)c2O [castalagin], the antiviral activity [6] is listed as “activity against acyclovir (ACV)-resistant strains of HSV-1 and HSV-2 was proved” and the antiviral activity [7] is listed as “activity against acyclovir (ACV)-resistant strains of HSV-1 and HSV-2 was proved”.
For COc1cc(C(OC)C(COC(C)=O)Oc2ccc(/C=C/COC(C)=O)cc2OC)ccc1O (centres unmarked) [Compound 6, marylaurencinol D], the CC50 at 24 h [1] is given as 71.6 ± 5.83 µM, the antimicrobial activity (Bacillus subtilis) is given as “weak potency” and the antimicrobial activity (Klebsiella pneumoniae) is given as “no effect”. The antimicrobial activity (Trychophyton rubrum) was “no effect” and the “Anti-HSV-2 Activity IC50” value (HSV-2 [4]) was “inactive”.
In the case of COc1cc2ccc(=O)oc2cc1OC [Compound 7, 6,7-dimethoxycoumarin], the CC50 at 24 h [1] is listed as 0.35 ± 0.016 µM, the “IC50 against influenza A virus” value [12] is listed as > 15 µg/mL and the “effect on PCV2 replication” value [13] is listed as “replication-inducing activity”. The “anti-hepatitis B virus activity” value (hepatitis B virus (HBV)) was “efficiently inhibits viral replication”, the IC50 (HSV-2 [4]; [14]) was 0.032 ± 0.0021 µM and the IC50 (HSV-2 [4]; read-out: IC50 (anti-HSV-2)) was 0.032 µM. For the same molecule, the “Selectivity Index” value (HSV-2 [4]) was 10.923.
